Source: US5691338A, “1,2-dithiole-3 thiones for the treatment of reverse transcriptase-dependent viral infections” (priority 1995, dated 1997)

Tests used:
HIV-1 [1] = details: cited from earlier work
HIV-1 (HTLVIIIB) = assay: microbe, parasite or virus in culture; details: Human immunodeficiency virus 1, H9, read-out: median dose (p24 release)
Procedure: The effects for test compounds were assessed by means of both IFA and p24 release. In general, the following protocol was followed: H9 cells were infected with HIV-1 at 1000 50% infective doses of viruses/10^6 cells. Virus was allowed to adsorb for 1 h, after which unadsorbed virus was removed by centrifugation. The cells were resuspended and washed twice with PBS (without Ca^+2 or Mg^+2 salts) and centrifuged to collect the cell pellet (150×g×10 min). Cells were suspended in fresh medium and added at a final cell density of 500,000 cells/ml in a 96-well plate with media containing 0.1% DMSO and various concentrations of test compounds. The cells were re-fed freshly prepared media containing 0.1% DMSO±test compounds on day four (for preinduction experiments, cells were exposed to inducers on days -2, 0, and +4 days relative to infection). After seven days, cells were examined for cytoxicity by trypan blue exclusion, the degree of infection with HIV-1 by IFA, and the supernatants were assayed for p24 levels according to the manufacturer's directions. The IFA procedure can be summarized as follows: The cells were washed twice in PBS and were placed in 5 mm 12-well slides. After allowing the slides to dry and fixing the cells with acetone for 5 min, 10 μl of HIV-1 positive serum in 40 μl PBS was added to each well and allowed to incubate at 37° C. for 30 min. After incubation, the slides were washed twice with PBS and incubated at 37° C. for 30 min with 2.5 μl goat anti-human IgG-fluorescein isothiocyanate conjugate in 50 μl PBS containing 0.01% Evans Blue per well. The slides were then washed twice with PBS, dried, and mounted with 50% glycerol in PBS, and scored for the percentage of fluorescent cells by fluorescent microscopy.
Statistical significance for GSH and QR levels were established by the unpaired t test using the INSTAT statistics program (Graphpad, San Diego, Calif.). The Ki of oltipraz was determined by performing Segal transformations (26) of Dixon plots. […] Calculations were performed on spreadsheets using Lotus 1-2-3 software (Cambridge, Mass.).

HIV-1 [2] = details: HIV-1 infected patients, pharmacokinetics study; cited from earlier work

Cc1cn([C@H]2C[C@H](N=[N+]=[N-])[C@@H](CO)O2)c(=O)[nH]c1=O [AZT, 3'-azido-3'-deoxythymidine]
synergy with anti-HIV-1 drugs (HIV-1 [1]; in vitro, Kong et al.): synergistic with anti-HIV-1 drugs such as phosphonoformate
IC50 (HIV-1 (HTLVIIIB)): 0.045 µM

CC(=O)N[C@@H](CS)C(=O)O [N-acetylcysteine]
inhibition of HIV-1 replication (HIV-1 [1]; cultured cells): effectively inhibit the replication of HIV-1
effect on surrogate markers for HIV-1 (HIV-1 [2]): did not alter surrogate markers for HIV-1
